Measurements reported in patent publication US6737383B1, “Herbicidal oxadiazolidines” (priority 1999, dated 2004).

Legend:
[1] = system: bedstraw; assay: Test B pre/postemergence bedstraw; assay type: in vivo, Galium aparine
Outline: (§1)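 Response is a visual 0-to-10 score relative to untreated plants, where 0 means no effect and 10 means complete control, taken twelve to sixteen days after application. Treatments went onto soil at planting and onto foliage of 1- to 4-leaf plants, using a surfactant-containing non-phytotoxic solvent.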

[2] = system: blackgrass; assay: Test B pre/postemergence blackgrass; assay type: in vivo, Alopecurus myosuroides
Outline: as §1

[3] = system: soybean; assay: Test B pre/postemergence soybean; assay type: in vivo, Glycine max
Outline: as §1

[4] = system: velvetleaf; assay: Test B pre/postemergence velvetleaf; assay type: in vivo, Abutilon theophrasti
Outline: as §1

[5] = system: Alexandergrass; assay: Test D Alexandergrass; assay type: in vivo, Brachiaria plantaginea; conditions: Preemergence, 0 to 100 scale
Outline: (§2)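 Visual injury ratings, 0 = no injury to 100 = complete control, taken 14 to 21 days after treatment. Test chemicals were in a surfactant-containing non-phytotoxic solvent; preemergence treatments went onto the sandy loam surface of seeded greenhouse pots within one day of sowing.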

[6] = system: Johnson grass; assay: Test D Johnson grass; assay type: in vivo, Sorghum halepense; conditions: Preemergence, 0 to 100 scale
Outline: as §2

[7] = system: purple nutsedge; assay: Test D purple nutsedge; assay type: in vivo, Cyperus rotundus; conditions: Preemergence, 0 to 100 scale
Outline: as §2

[8] = system: winter wheat; assay: Test E winter wheat; assay type: in vivo, Triticum aestivum; conditions: Postemergence
Outline: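 Compound formulated with surfactant in a non-phytotoxic solvent (postemergence: young 1- to 4-leaf plants); held in greenhouse approx. 21–28 days; visual assessment against untreated plants.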

[9] = system: blackgrass; assay: Test E blackgrass; assay type: in vivo, Alopecurus myosuroides; conditions: Preemergence
[10] = system: green foxtail; assay: Test E green foxtail; assay type: in vivo, Setaria viridis; conditions: Preemergence
[11] = system: Italian ryegrass; assay: Test E Italian ryegrass; assay type: in vivo, Lolium multiflorum; conditions: Preemergence
[12] = system: winter wheat; assay: Test E winter wheat; assay type: in vivo, Triticum aestivum; conditions: Preemergence
[13] = system: wild oat; assay: Test E wild oat; assay type: in vivo, Avena fatua; conditions: Preemergence
[14] = system: winter barley; assay: Test E winter barley; assay type: in vivo, Hordeum vulgare; conditions: Preemergence
[15] = Postemergence, Rate 62 g/ha, scale 0 to 10, 0 is no effect, 10 is complete control
[16] = Postemergence, Rate 250 g/ha, scale 0 to 10, 0 no effect, 10 complete control
[17] = Preemergence, Rate 62 g/ha, scale 0 to 10 (0 no effect, 10 complete control)
[18] = Preemergence, Rate 125 g/ha, scale 0 to 10 (0 no effect, 10 complete control)
[19] = Preemergence, Rate 250 g/ha, scale of 0 to 10 where 0 is no effect and 10 is complete control
[20] = Preemergence, Rate 500 g/ha, scale 0 (no effect) to 10 (complete control)
[21] = Rate 125 g/ha, Postemergence, scale 0 to 10, 0 no effect, 10 complete control
[22] = Rate 500 g/ha, Postemergence, scale 0 to 10, 0 no effect, 10 complete control
[23] = Rate 16 g/ha, 0 no injury, 100 complete control
[24] = Rate 32 g/ha, 0 no injury, 100 complete control
[25] = Rate 64 g/ha, 0 no injury, 100 complete control
[26] = Rate 125 g/ha, 0 no injury, 100 complete control
[27] = Preemergence, Rate 125 g/ha, 0 is no effect, 10 is complete control
[28] = Preemergence, Rate 250 g/ha, scale 0 to 10, 0 is no effect, 10 is complete control
[29] = Preemergence, Rate 500 g/ha, scale 0 to 10 (0 no effect, 10 complete control)
[30] = Postemergence, Rate 125 g/ha, scale of 0 to 10 where 0 is no effect and 10 is complete control
[31] = Rate 62 g/ha, Postemergence, scale of 0 to 10 where 0 is no effect and 10 is complete control
[32] = Rate 250 g/ha, Postemergence, scale 0 to 10, 0 is no effect, 10 is complete control
[33] = Rate 250 g/ha, 0 to 100 scale (0 no effect, 100 complete control)
[34] = Rate 1000 g/ha, 0 to 100 scale where 0 is no effect and 100 is complete control
[35] = Preemergence, Rate 62 g/ha, scale 0 to 10, 0 is no effect, 10 is complete control
[36] = Rate 500 g/ha, Postemergence, 0 to 10 scale (0 no effect, 10 complete control)
[37] = Rate 125 g/ha, 0 to 100 scale (0 no effect, 100 complete control)
[38] = Rate 500 g/ha, 0 to 100 scale where 0 is no effect and 100 is complete control

CC(C)N(C(=O)n1oc(=O)n(Cc2ccccc2)c1=O)c1ccc(F)cc1 [Compound 78]
Bedstraw plant response rating [1, 15]: 0
Bedstraw plant response rating [1, 16]: 4
Bedstraw plant response rating [1, 17]: 0
Plant response rating, Bedstraw [1, 18]: 0
Plant response rating, Bedstraw [1, 19]: 0
Bedstraw plant response rating [1, 20]: 0
Bedstraw plant response rating [1, 21]: 0
Bedstraw plant response rating [1, 22]: 8
Blackgrass plant response rating [2, 15]: 0
Blackgrass plant response rating [2, 16]: 3
Blackgrass plant response rating [2, 17]: 2
Plant response rating, Blackgrass [2, 18]: 4
Plant response rating, Blackgrass [2, 19]: 4
Blackgrass plant response rating [2, 20]: 6
Blackgrass plant response rating [2, 21]: 3
Blackgrass plant response rating [2, 22]: 7
Soybean plant response rating [3, 15]: 1
Soybean plant response rating [3, 16]: 2
Soybean plant response rating [3, 17]: 0
Plant response rating, Soybean [3, 18]: 0
Plant response rating, Soybean [3, 19]: 0
Soybean plant response rating [3, 20]: 0
Soybean plant response rating [3, 21]: 1
Soybean plant response rating [3, 22]: 4
Velvetleaf plant response rating [4, 15]: 2
Velvetleaf plant response rating [4, 16]: 3
Velvetleaf plant response rating [4, 17]: 0
Plant response rating, Velvetleaf [4, 18]: 0
Plant response rating, Velvetleaf [4, 19]: 2
Velvetleaf plant response rating [4, 20]: 7
Velvetleaf plant response rating [4, 21]: 2
Velvetleaf plant response rating [4, 22]: 4
Plant response rating, Alexandergrass [5, 23]: 0
Plant response rating, Alexandergrass [5, 24]: 0
Plant response rating, Alexandergrass [5, 25]: 30
Plant response rating, Alexandergrass [5, 26]: 75
Plant response rating, Alexandergrass ([5]; Rate 250 g/ha): 75
Plant response rating, Alexandergrass ([5]; Rate 500 g/ha): 100
Plant response rating, Johnsongrass [6, 23]: 0
Plant response rating, Johnsongrass [6, 24]: 0
Plant response rating, Johnsongrass [6, 25]: 0
Plant response rating, Johnsongrass [6, 26]: 0
Plant response rating, Johnsongrass ([6]; Rate 250 g/ha): 20
Plant response rating, Johnsongrass ([6]; Rate 500 g/ha): 20
Plant response rating, Purple nutsedge [7, 23]: 0
Plant response rating, Purple nutsedge [7, 24]: 0
Purple nutsedge plant response rating [7, 25]: 0
Purple nutsedge plant response rating [7, 26]: 0
Plant response rating, Purple nutsedge ([7]; Rate 250 g/ha): 0
Plant response rating, Purple nutsedge ([7]; Rate 500 g/ha): 0

CC(C)N(C(=O)n1oc(=O)n(-c2cnn(C)c2)c1=O)c1ccccc1 [Compound 123]
Bedstraw plant response rating [1, 17]: 0
Bedstraw plant response rating (0 to 10 scale) [1, 27]: 0
Bedstraw plant response rating [1, 28]: 0
Bedstraw plant response rating [1, 29]: 0
Blackgrass plant response rating [2, 30]: 6
Blackgrass plant response rating [2, 17]: 0
Blackgrass plant response rating (0 to 10 scale) [2, 27]: 0
Blackgrass plant response rating [2, 28]: 4
Blackgrass plant response rating [2, 29]: 7
Blackgrass plant response rating [2, 31]: 2
Plant response rating, Blackgrass [2, 32]: 6
Blackgrass plant response rating [2, 22]: 7
Soybean plant response rating [3, 30]: 4
Soybean plant response rating [3, 17]: 0
Soybean plant response rating (0 to 10 scale) [3, 27]: 0
Soybean plant response rating [3, 28]: 0
Soybean plant response rating [3, 29]: 0
Soybean plant response rating [3, 31]: 2
Plant response rating, Soybean [3, 32]: 4
Soybean plant response rating [3, 22]: 4
Velvetleaf plant response rating [4, 30]: 0
Velvetleaf plant response rating [4, 17]: 0
Velvetleaf plant response rating (0 to 10 scale) [4, 27]: 0
Velvetleaf plant response rating [4, 28]: 3
Velvetleaf plant response rating [4, 29]: 6
Velvetleaf plant response rating [4, 31]: 0
Plant response rating, Velvetleaf [4, 32]: 0
Plant response rating, Wheat (winter) [8, 33]: 55
Plant response rating, Wheat (winter) ([8]; Rate 1000 g/ha, 0 to 100 scale, 0 is no effect and 100 is complete control): 65
Plant response rating, Blackgrass ([9]; Rate 250 g/ha, 0 to 100 scale): 30
Plant response rating, Blackgrass [9, 34]: 65
Plant response rating, Green foxtail ([10]; Rate 250 g/ha, 0 to 100 scale): 20
Plant response rating, Green foxtail [10, 34]: 40
Plant response rating, I. Ryegrass ([11]; Rate 250 g/ha, 0 to 100 scale): 40
Plant response rating, I. Ryegrass [11, 34]: 50
Plant response rating, Wheat (winter) ([12]; Rate 250 g/ha, 0 to 100 scale): 10
Plant response rating, Wheat (winter) [12, 34]: 20
Plant response rating, Wild oat [13, 34]: 55
Plant response rating, Barley (winter) ([14]; Rate 250 g/ha, 0 to 100 scale): 30
Plant response rating, Barley (winter) [14, 34]: 50

CC(C)N(C(=O)n1oc(=O)n(-c2ccccc2)c1=O)c1ccc(F)cc1 [Compound 38]
Bedstraw plant response rating [1, 15]: 0
Bedstraw plant response rating [1, 16]: 0
Plant response rating, Bedstraw [1, 35]: 0
Plant response rating, Bedstraw [1, 18]: 0
Plant response rating, Bedstraw [1, 19]: 0
Bedstraw plant response rating [1, 20]: 0
Bedstraw plant response rating [1, 21]: 0
Bedstraw plant response rating [1, 36]: 5
Blackgrass plant response rating [2, 15]: 0
Blackgrass plant response rating [2, 16]: 7
Plant response rating, Blackgrass [2, 35]: 4
Plant response rating, Blackgrass [2, 18]: 6
Plant response rating, Blackgrass [2, 19]: 10
Blackgrass plant response rating [2, 20]: 10
Blackgrass plant response rating [2, 21]: 3
Blackgrass plant response rating [2, 36]: 8
Soybean plant response rating [3, 15]: 0
Soybean plant response rating [3, 16]: 0
Plant response rating, Soybean [3, 35]: 0
Plant response rating, Soybean [3, 18]: 0
Plant response rating, Soybean [3, 19]: 0
Soybean plant response rating [3, 20]: 2
Soybean plant response rating [3, 21]: 0
Velvetleaf plant response rating [4, 15]: 0
Velvetleaf plant response rating [4, 16]: 0
Plant response rating, Velvetleaf [4, 35]: 0
Plant response rating, Velvetleaf [4, 18]: 0
Plant response rating, Velvetleaf [4, 19]: 0
Velvetleaf plant response rating [4, 20]: 0
Velvetleaf plant response rating [4, 21]: 0
Plant response rating, Wheat (winter) ([8]; Rate 125 g/ha, 0 to 100 scale): 10
Plant response rating, Wheat (winter) [8, 33]: 10
Plant response rating, Wheat (winter) ([8]; Rate 500 g/ha, 0 to 100 scale, 0 no effect, 100 complete control): 10
Plant response rating, Blackgrass [9, 37]: 25
Plant response rating, Blackgrass ([9]; Rate 250 g/ha, 0 to 100 scale): 45
Plant response rating, Blackgrass [9, 38]: 35
Plant response rating, Green foxtail [10, 37]: 80
Plant response rating, Green foxtail ([10]; Rate 250 g/ha, 0 to 100 scale): 90
Plant response rating, Green foxtail [10, 38]: 100
Plant response rating, I. Ryegrass [11, 37]: 0
Plant response rating, I. Ryegrass ([11]; Rate 250 g/ha, 0 to 100 scale): 20
Plant response rating, I. Ryegrass [11, 38]: 80
Plant response rating, Wheat (winter) [12, 37]: 10
Plant response rating, Wheat (winter) ([12]; Rate 250 g/ha, 0 to 100 scale): 0
Plant response rating, Wheat (winter) [12, 38]: 10
Plant response rating, Wild oat [13, 37]: 0
Plant response rating, Wild oat [13, 38]: 20
Plant response rating, Barley (winter) [14, 37]: 0
Plant response rating, Barley (winter) ([14]; Rate 250 g/ha, 0 to 100 scale): 0
Plant response rating, Barley (winter) [14, 38]: 0
